These results are taken from patent US20080200338A1, “Heteroaroyl-Substituted Serineamides” (BASF Aktiengesellschaft, priority 2005, published 2008).

Molecule `C=CC(O)C(NC(=O)c1cn(C)nc1C(F)(F)F)C(=O)NC` (racemic) [Compound 3.4, N-(2-Hydroxy-1-methylcarbamoylbut-3-enyl)-1-methyl-3-trifluoromethyl-1H-pyrazole-4-carboxamide] showed a melting point of 136 °C.

The molecule `C=CC(OC(C)=O)C(NC(=O)c1cn(C)nc1C(F)(F)F)C(=O)NC` (racemic) [Compound 3.10, 1-{Methylcarbamoyl-[(1-methyl-3-trifluoromethyl-1H-pyrazol-4-carbonyl)amino]methyl}-allyl acetate] yielded a melting point of 160 °C.
